Key:
[1] = Fluid (supercritical or subcritical phases), coriolis meter
[2] = xn = mol fraction of the nth substance listed; settings: Fluid (supercritical or subcritical phases), coriolis meter

COC [dimethyl ether]
[1]
Settings	mass density [kg/m3]
288.5 K, 4100 kPa	684
288.6 K, 5100 kPa	686
288.8 K, 6100 kPa	688
289 K, 7200 kPa	690
289.1 K, 8200 kPa	691
289.1 K, 9200 kPa	693
289.3 K, 10000 kPa	694
289.3 K, 15000 kPa	703
289.3 K, 20000 kPa	711
289.4 K, 25000 kPa	718
289.5 K, 30000 kPa	725

COC [dimethyl ether] + O=C=O
[2]
Settings	mass density [kg/m3]
288.5 K, 4100 kPa, x1 = 1	684
288.6 K, 5100 kPa, x1 = 1	686
288.8 K, 6100 kPa, x1 = 1	688
289 K, 7200 kPa, x1 = 1	690
289.1 K, 8200 kPa, x1 = 1	691
289.1 K, 9200 kPa, x1 = 1	693
289.3 K, 10000 kPa, x1 = 1	694
289.3 K, 15000 kPa, x1 = 1	703
289.3 K, 20000 kPa, x1 = 1	711
289.4 K, 25000 kPa, x1 = 1	718
289.5 K, 30000 kPa, x1 = 1	725
290.2 K, 4100 kPa, x1 = 0.251	806
290.7 K, 30100 kPa, x1 = 0.251	908
291.8 K, 25200 kPa, x1 = 0.251	892
291.9 K, 10100 kPa, x1 = 0.251	834
291.9 K, 15200 kPa, x1 = 0.251	857
291.9 K, 20200 kPa, x1 = 0.251	875
292 K, 8100 kPa, x1 = 0.251	824
292 K, 9200 kPa, x1 = 0.251	829
292.1 K, 6100 kPa, x1 = 0.251	811
292.1 K, 7100 kPa, x1 = 0.251	817
292.2 K, 5100 kPa, x1 = 0.251	805
292.5 K, 4000 kPa, x1 = 0.458	769
292.5 K, 5200 kPa, x1 = 0.458	773
292.6 K, 6100 kPa, x1 = 0.458	776
292.7 K, 7100 kPa, x1 = 0.458	780
292.8 K, 8200 kPa, x1 = 0.458	783
293 K, 9200 kPa, x1 = 0.458	786
293.1 K, 10200 kPa, x1 = 0.458	789
293.2 K, 15200 kPa, x1 = 0.458	804
293.4 K, 20200 kPa, x1 = 0.458	817
293.5 K, 25300 kPa, x1 = 0.458	830
293.7 K, 29300 kPa, x1 = 0.458	839
293.7 K, 30000 kPa, x1 = 0.458	840

O=C=O [carbon dioxide] + COC
[2], x2 = 0
Settings	mass density [kg/m3]
291.3 K, 6100 kPa	817
291.5 K, 7100 kPa	834
291.7 K, 8100 kPa	849
291.9 K, 9200 kPa	861
292 K, 10200 kPa	872
292.1 K, 15200 kPa	916
292.1 K, 20200 kPa	948
292.1 K, 25300 kPa	975
292.1 K, 30100 kPa	997

O=C=O [carbon dioxide]
[1]
Settings	mass density [kg/m3]
291.3 K, 6100 kPa	817
291.5 K, 7100 kPa	834
291.7 K, 8100 kPa	849
291.9 K, 9200 kPa	861
292 K, 10200 kPa	872
292.1 K, 15200 kPa	916
292.1 K, 20200 kPa	948
292.1 K, 25300 kPa	975
292.1 K, 30100 kPa	997

From the NIST ThermoML archive (doi:10.1016/j.fluid.2010.07.009)
